Source: ChEMBL document CHEMBL1201862, “PubChem BioAssay data set” (2004)
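Assay format: 96-well plates, 48-hour exposure. GI50 is the concentration that inhibits growth by half.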 Activity calls are given as the source filed them. No stated cut-off is given here; in the data, active = GI50 up to about 1.1 µM and inactive = higher.

What was measured:
Experiment in all cases: growth of human tumour cells (NCI), 48 h
NCI-H460 = test system: NCI-H460
786-0 = test system: 786-0
SK-OV-3 = test system: SK-OV-3
Hs-578T = test system: Hs-578T
CCRF-CEM = test system: CCRF-CEM
K562 = test system: K562
LOX IMVI = test system: LOX IMVI
UO-31 = test system: UO-31
HL-60 = test system: HL-60
NCI-H522 = test system: NCI-H522
OVCAR-8 = test system: OVCAR-8
HCT-116 = test system: HCT-116
CAKI-1 = test system: CAKI-1
SK-MEL-28 = test system: SK-MEL-28
A498 = test system: A498
MDA-MB-231 = test system: MDA-MB-231
OVCAR-4 = test system: OVCAR-4
HOP-62 = test system: HOP-62
M14 = test system: M14

## O=c1c2c3c(sc2nc2n1N=C(c1ccc(Cl)cc1)CS2)CCCC3
NCI-H460
  GI50: > 100 µM (inactive)
786-0
  GI50: > 100 µM (inactive)
SK-OV-3
  GI50: > 100 µM (inactive)
Hs-578T
  GI50: > 100 µM (inactive)
CCRF-CEM
  GI50: > 100 µM (inactive)
K562
  GI50: > 100 µM (inactive)
LOX IMVI
  GI50: > 100 µM (inactive)
UO-31
  GI50: > 100 µM (inactive)
HL-60
  GI50: > 100 µM (inactive)
NCI-H522
  GI50: > 100 µM (inactive)
OVCAR-8
  GI50: > 100 µM (inactive)
HCT-116
  GI50: > 100 µM (inactive)
CAKI-1
  GI50: > 100 µM (inactive)
SK-MEL-28
  GI50: > 100 µM (inactive)
A498
  GI50: > 100 µM (inactive)
MDA-MB-231
  GI50: > 100 µM (inactive)
OVCAR-4
  GI50: > 100 µM (inactive)
HOP-62
  GI50: > 100 µM (inactive)

## COC(=O)CC(=O)Nc1sccc1S(=O)(=O)c1ccccc1
NCI-H460
  GI50: > 100 µM (inactive)
786-0
  GI50: 50.5 µM (inactive)
SK-OV-3
  GI50: > 100 µM (inactive)
Hs-578T
  GI50: > 100 µM (inactive)
CCRF-CEM
  GI50: > 100 µM (inactive)
K562
  GI50: 80.7 µM (inactive)
UO-31
  GI50: 40.5 µM (inactive)
HL-60
  GI50: > 100 µM (inactive)
NCI-H522
  GI50: 46.9 µM (inactive)
OVCAR-8
  GI50: > 100 µM (inactive)
HCT-116
  GI50: > 100 µM (inactive)
M14
  GI50: 27 µM (inactive)
CAKI-1
  GI50: > 100 µM (inactive)
SK-MEL-28
  GI50: > 100 µM (inactive)
A498
  GI50: > 100 µM (inactive)
MDA-MB-231
  GI50: > 100 µM (inactive)
OVCAR-4
  GI50: 54.3 µM (inactive)

## CCCC[C@H]1C(=O)O[C@H](C)[C@H](NC(=O)c2cccc(NC=O)c2OC)C(=O)O[C@@H](C)[C@@H]1OC(=O)C(C)CC.CCCC[C@H]1C(=O)O[C@H](C)[C@H](NC(=O)c2cccc(NC=O)c2OC)C(=O)O[C@@H](C)[C@@H]1OC(=O)CC(C)C (stereo not given in full)
NCI-H460
  GI50: 5.35 µM (inactive)
786-0
  GI50: 12.1 µM (inactive)
SK-OV-3
  GI50: 12.5 µM (inactive)
Hs-578T
  GI50: 17.7 µM (inactive)
CCRF-CEM
  GI50: 3.32 µM (inactive)
K562
  GI50: 12.2 µM (inactive)
LOX IMVI
  GI50: 10.3 µM (inactive)
UO-31
  GI50: 14.8 µM (inactive)
HL-60
  GI50: 10.6 µM (inactive)
NCI-H522
  GI50: 8.51 µM (inactive)
OVCAR-8
  GI50: 12.9 µM (inactive)
HCT-116
  GI50: 12.1 µM (inactive)
M14
  GI50: 14.6 µM (inactive)
CAKI-1
  GI50: 7.87 µM (inactive)
SK-MEL-28
  GI50: 21.6 µM (inactive)
A498
  GI50: 8.81 µM (inactive)
MDA-MB-231
  GI50: 12.1 µM (inactive)
OVCAR-4
  GI50: 7.94 µM (inactive)
HOP-62
  GI50: 17.8 µM (inactive)

## CN(NC(=O)c1cccs1)C1=NCCN1
NCI-H460
  GI50: > 100 µM (inactive)
786-0
  GI50: > 100 µM (inactive)
SK-OV-3
  GI50: > 100 µM (inactive)
Hs-578T
  GI50: > 100 µM (inactive)
CCRF-CEM
  GI50: > 100 µM (inactive)
K562
  GI50: > 100 µM (inactive)
LOX IMVI
  GI50: > 100 µM (inactive)
UO-31
  GI50: > 100 µM (inactive)
HL-60
  GI50: > 100 µM (inactive)
NCI-H522
  GI50: > 100 µM (inactive)
OVCAR-8
  GI50: > 100 µM (inactive)
HCT-116
  GI50: > 100 µM (inactive)
M14
  GI50: > 100 µM (inactive)
SK-MEL-28
  GI50: > 100 µM (inactive)
A498
  GI50: > 100 µM (inactive)
MDA-MB-231
  GI50: > 100 µM (inactive)
OVCAR-4
  GI50: > 100 µM (inactive)
HOP-62
  GI50: > 100 µM (inactive)

## CCCCC(=O)OC[n+]1cccc(-c2c(COC(=O)NC(C)C)c(COC(=O)NC(C)C)c3n2CCC3)c1
NCI-H460
  GI50: 15 µM (inactive)
786-0
  GI50: 23.1 µM (inactive)
SK-OV-3
  GI50: > 57.8 µM (inactive)
Hs-578T
  GI50: > 50.6 µM (inactive)
CCRF-CEM
  GI50: 7.93 µM (inactive)
K562
  GI50: 38.6 µM (inactive)
LOX IMVI
  GI50: 21.7 µM (inactive)
UO-31
  GI50: 27 µM (inactive)
HL-60
  GI50: 10.7 µM (inactive)
NCI-H522
  GI50: 23 µM (inactive)
OVCAR-8
  GI50: 44 µM (inactive)
HCT-116
  GI50: 37.2 µM (inactive)
M14
  GI50: 40.5 µM (inactive)
CAKI-1
  GI50: 12.3 µM (inactive)
SK-MEL-28
  GI50: > 100 µM (inactive)
A498
  GI50: 25.8 µM (inactive)
MDA-MB-231
  GI50: 62.5 µM (inactive)
OVCAR-4
  GI50: 31.3 µM (inactive)
HOP-62
  GI50: 56.1 µM (inactive)

## COc1ccc(CN(Cc2ccc(OC)cc2)C(=O)CC2(O)CCc3ccccc3C2)cc1 (stereo not given)
NCI-H460
  GI50: 44 µM (inactive)
786-0
  GI50: > 100 µM (inactive)
SK-OV-3
  GI50: > 100 µM (inactive)
Hs-578T
  GI50: 40.3 µM (inactive)
CCRF-CEM
  GI50: 16.6 µM (inactive)
K562
  GI50: > 100 µM (inactive)
LOX IMVI
  GI50: 52.4 µM (inactive)
UO-31
  GI50: 15.1 µM (inactive)
HL-60
  GI50: 17.8 µM (inactive)
NCI-H522
  GI50: 24 µM (inactive)
OVCAR-8
  GI50: 37 µM (inactive)
HCT-116
  GI50: 38 µM (inactive)
M14
  GI50: 66.1 µM (inactive)
CAKI-1
  GI50: 43.2 µM (inactive)
SK-MEL-28
  GI50: > 100 µM (inactive)
A498
  GI50: > 100 µM (inactive)
MDA-MB-231
  GI50: > 100 µM (inactive)
OVCAR-4
  GI50: 57 µM (inactive)
HOP-62
  GI50: > 100 µM (inactive)

## CC(=O)NC1C(O)C(O)C(CO)OC1n1nc(SCc2ccccc2)c(=O)[nH]c1=O (stereo not given)
NCI-H460
  GI50: > 100 µM (inactive)
786-0
  GI50: > 100 µM (inactive)
SK-OV-3
  GI50: > 100 µM (inactive)
Hs-578T
  GI50: > 100 µM (inactive)
CCRF-CEM
  GI50: > 100 µM (inactive)
K562
  GI50: > 100 µM (inactive)
LOX IMVI
  GI50: > 100 µM (inactive)
UO-31
  GI50: > 100 µM (inactive)
HL-60
  GI50: > 100 µM (inactive)
NCI-H522
  GI50: > 100 µM (inactive)
OVCAR-8
  GI50: > 100 µM (inactive)
HCT-116
  GI50: > 100 µM (inactive)
M14
  GI50: > 100 µM (inactive)
CAKI-1
  GI50: > 100 µM (inactive)
SK-MEL-28
  GI50: > 100 µM (inactive)
A498
  GI50: > 100 µM (inactive)
MDA-MB-231
  GI50: > 100 µM (inactive)
OVCAR-4
  GI50: > 100 µM (inactive)
HOP-62
  GI50: > 100 µM (inactive)

## CCCCCCNCCCNc1c2cc(OC)ccc2nc2cccc([N+](=O)[O-])c12
NCI-H460
  GI50: 0.0336 µM (active)
786-0
  GI50: 0.0834 µM (active)
SK-OV-3
  GI50: 0.627 µM (active)
Hs-578T
  GI50: 0.299 µM (active)
CCRF-CEM
  GI50: 0.0403 µM (active)
K562
  GI50: 0.103 µM (active)
LOX IMVI
  GI50: 0.134 µM (active)
UO-31
  GI50: 0.188 µM (active)
HL-60
  GI50: 0.214 µM (active)
NCI-H522
  GI50: < 0.0195 µM (active)
HCT-116
  GI50: 0.036 µM (active)
M14
  GI50: 0.143 µM (active)
CAKI-1
  GI50: 0.211 µM (active)
SK-MEL-28
  GI50: 0.208 µM (active)
A498
  GI50: 1.62 µM (inactive)
MDA-MB-231
  GI50: 0.055 µM (active)
OVCAR-4
  GI50: 0.113 µM (active)
HOP-62
  GI50: 0.0908 µM (active)

## Cc1cc(C)c2nc3c(c(C(O)C4CCCCN4)c2c1)CC/C3=C\c1ccc(Cl)cc1 (stereo not given)
NCI-H460
  GI50: 32.6 µM (inactive)
786-0
  GI50: 67.8 µM (inactive)
SK-OV-3
  GI50: 74.3 µM (inactive)
Hs-578T
  GI50: > 100 µM (inactive)
CCRF-CEM
  GI50: 25.4 µM (inactive)
K562
  GI50: 38 µM (inactive)
HL-60
  GI50: 10.7 µM (inactive)
NCI-H522
  GI50: 34 µM (inactive)
OVCAR-8
  GI50: 58.6 µM (inactive)
HCT-116
  GI50: 32 µM (inactive)
M14
  GI50: 75.9 µM (inactive)
CAKI-1
  GI50: 94.6 µM (inactive)
SK-MEL-28
  GI50: > 100 µM (inactive)
A498
  GI50: > 100 µM (inactive)
MDA-MB-231
  GI50: 73.3 µM (inactive)
OVCAR-4
  GI50: 58.9 µM (inactive)
HOP-62
  GI50: 75.9 µM (inactive)

## COc1cc(C2SCC(=O)N2c2ccccc2Cl)cc(OC)c1OC (stereo not given)
NCI-H460
  GI50: > 100 µM (inactive)
786-0
  GI50: > 100 µM (inactive)
SK-OV-3
  GI50: > 100 µM (inactive)
Hs-578T
  GI50: > 100 µM (inactive)
CCRF-CEM
  GI50: 80.4 µM (inactive)
K562
  GI50: > 100 µM (inactive)
LOX IMVI
  GI50: > 100 µM (inactive)
UO-31
  GI50: > 100 µM (inactive)
HL-60
  GI50: 37.8 µM (inactive)
NCI-H522
  GI50: 65.8 µM (inactive)
OVCAR-8
  GI50: > 100 µM (inactive)
HCT-116
  GI50: > 100 µM (inactive)
M14
  GI50: > 100 µM (inactive)
CAKI-1
  GI50: > 100 µM (inactive)
SK-MEL-28
  GI50: > 100 µM (inactive)
A498
  GI50: > 100 µM (inactive)
MDA-MB-231
  GI50: > 100 µM (inactive)
OVCAR-4
  GI50: > 100 µM (inactive)

## N/C(=N\c1ccc(Cl)cc1)NS(=O)(=O)c1cc(Cl)c(Oc2ccc([N+](=O)[O-])cc2Cl)c(Cl)c1
NCI-H460
  GI50: 18.4 µM (inactive)
786-0
  GI50: 18.9 µM (inactive)
SK-OV-3
  GI50: 17.4 µM (inactive)
Hs-578T
  GI50: > 100 µM (inactive)
CCRF-CEM
  GI50: 19.7 µM (inactive)
K562
  GI50: 18.7 µM (inactive)
LOX IMVI
  GI50: 16.1 µM (inactive)
UO-31
  GI50: 18.8 µM (inactive)
HL-60
  GI50: 16.7 µM (inactive)
NCI-H522
  GI50: > 100 µM (inactive)
OVCAR-8
  GI50: 16.6 µM (inactive)
HCT-116
  GI50: 16.7 µM (inactive)
M14
  GI50: 18.6 µM (inactive)
CAKI-1
  GI50: 17.2 µM (inactive)
SK-MEL-28
  GI50: 16.9 µM (inactive)
A498
  GI50: 15.5 µM (inactive)
MDA-MB-231
  GI50: 16.6 µM (inactive)
OVCAR-4
  GI50: 16 µM (inactive)
